From PMC12669672, “Structural insights into selective and dual antagonism of EP2 and EP4 prostaglandin receptors” (The EMBO Journal, 2025)
Several values for one entry are separate records, joined by “and”; a condition that tells them apart may be missing. Equal values may be shown once. Read-outs that look alike come from different tables or passages of the source.

Experiments:
Assay in all cases: GloSensor cAMP assay, inhibition of constitutive activity
Format in all cases: cell-based
[1] = target: T1, constitutively active EP4 V72A (Homo sapiens, UniProt P35408, V72A)
T1 construct: The full-length EP2 or EP4 was cloned into the pcDNA3.1 vector (Invitrogen), incorporating an N-terminal FLAG tag; expressed in transfected cells; host or cells: AD293
T1 sequence (P35408 whole entry V72A): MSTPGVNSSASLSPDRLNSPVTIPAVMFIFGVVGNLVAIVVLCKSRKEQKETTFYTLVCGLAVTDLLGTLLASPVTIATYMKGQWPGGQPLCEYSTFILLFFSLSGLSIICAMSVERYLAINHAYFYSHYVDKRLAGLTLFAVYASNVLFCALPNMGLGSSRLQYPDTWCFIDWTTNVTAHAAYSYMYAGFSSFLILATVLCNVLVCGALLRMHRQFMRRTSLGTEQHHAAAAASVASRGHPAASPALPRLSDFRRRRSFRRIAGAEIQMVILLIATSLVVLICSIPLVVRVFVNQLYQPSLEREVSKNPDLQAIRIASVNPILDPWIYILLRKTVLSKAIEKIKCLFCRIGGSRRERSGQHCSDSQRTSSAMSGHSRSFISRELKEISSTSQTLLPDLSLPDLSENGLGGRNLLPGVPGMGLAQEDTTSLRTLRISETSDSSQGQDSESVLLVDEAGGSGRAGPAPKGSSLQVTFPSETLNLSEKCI
Protocol: (§1) The full-length EP2 or EP4 was cloned into the pcDNA3.1 vector (Invitrogen), incorporating an N-terminal FLAG tag. AD293 cells were seeded in six-well plates containing DMEM supplemented with 10% dialyzed FBS 1 day prior to transfection. Following overnight growth, cells were transfected with a 1:1 ratio of receptor construct and GloSensor22F cAMP biosensor (Promega) plasmids.
(§2) Twenty-four hours post-transfection, the cells were transferred to CO2-independent media containing 2% GloSensor cAMP Reagent (Promega) and distributed into 384-well assay plates at a density of 4000 cells per well in 10 μL. […] The plates were then incubated at 37 °C for an additional hour before luminescence measurements were taken using an EnVision plate reader.
(§3) Data analysis was performed using GraphPad Prism software v8.0.1. A nonlinear regression analysis, employing a sigmoidal dose–response model, was conducted to determine the Emax values and half-maximum inhibitory concentrations (IC50) for each compound tested.

[2] = target: T2, constitutively active EP2 S86A (Homo sapiens, UniProt P43116, S86A)
T2 construct: The full-length EP2 or EP4 was cloned into the pcDNA3.1 vector; FLAG (N); expressed in transfected cells; host or cells: AD293 cells
T2 sequence (P43116 whole entry S86A): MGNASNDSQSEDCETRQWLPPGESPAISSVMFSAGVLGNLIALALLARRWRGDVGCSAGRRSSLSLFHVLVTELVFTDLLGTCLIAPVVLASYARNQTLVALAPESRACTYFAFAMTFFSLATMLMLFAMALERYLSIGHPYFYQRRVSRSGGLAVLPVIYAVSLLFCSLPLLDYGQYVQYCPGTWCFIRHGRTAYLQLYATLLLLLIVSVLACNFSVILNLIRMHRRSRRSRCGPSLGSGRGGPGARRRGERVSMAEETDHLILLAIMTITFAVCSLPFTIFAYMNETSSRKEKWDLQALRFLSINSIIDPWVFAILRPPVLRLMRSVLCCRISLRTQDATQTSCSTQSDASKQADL
Protocol: as §1, §2, §3

[3] = target: T3, constitutively active EP2 S305A (Homo sapiens, UniProt P43116, S305A)
T3 construct: The full-length EP2 or EP4 was cloned into the pcDNA3.1 vector; FLAG (N); expressed in transfected cells; host or cells: AD293 cells
T3 sequence (P43116 whole entry S305A): as the sequence (P43116 whole entry S86A) above, with A86S, S305A counted along it
Protocol: as §1, §2, §3

[4] = target: T4, constitutively active EP2 W186A (Homo sapiens, UniProt P43116, W186A)
T4 construct: The full-length EP2 or EP4 was cloned into the pcDNA3.1 vector; FLAG (N); expressed in transfected cells; host or cells: AD293 cells
T4 sequence (P43116 whole entry W186A): as the sequence (P43116 whole entry S86A) above, with A86S, W186A counted along it
Protocol: as §1, §2, §3

[5] = target: T5, constitutively active EP2 M116A (Homo sapiens, UniProt P43116, M116A)
T5 construct: The full-length EP2 or EP4 was cloned into the pcDNA3.1 vector; FLAG (N); expressed in transfected cells; host or cells: AD293 cells
T5 sequence (P43116 whole entry M116A): as the sequence (P43116 whole entry S86A) above, with A86S, M116A counted along it
Protocol: as §1, §2, §3

[6] = target: T6, constitutively active EP2 T82A (Homo sapiens, UniProt P43116, T82A)
T6 construct: The full-length EP2 or EP4 was cloned into the pcDNA3.1 vector; FLAG (N); expressed in transfected cells; host or cells: AD293 cells
T6 sequence (P43116 whole entry T82A): as the sequence (P43116 whole entry S86A) above, with T82A, A86S counted along it
Protocol: as §1, §2, §3

[7] = target: T7, constitutively active EP4 V320A (Homo sapiens, UniProt P35408, V320A)
T7 construct: The full-length EP2 or EP4 was cloned into the pcDNA3.1 vector (Invitrogen), incorporating an N-terminal FLAG tag; expressed in transfected cells; host or cells: AD293
T7 sequence (P35408 whole entry V320A): as the sequence (P35408 whole entry V72A) above, with A72V, V320A counted along it
Protocol: as §1, §2, §3

[8] = no PGE2, pIC50 mutant - pIC50 WT, mean

remaining activity at 0.1585 µM ([1]; 1 h, TG6-129 log([M]) -6.80, EP4-V72A, read-out: % cAMP activity (normalized to WT)): 44.9%
remaining activity at 0.03236 µM ([1]; 1 h, TG6-129 log([M]) -7.49, EP4-V72A, read-out: % cAMP activity (normalized to WT)): 51.4%
remaining activity at 0.006457 µM ([1]; 1 h, TG6-129 log([M]) -8.19, EP4-V72A, read-out: % cAMP activity (normalized to WT)): 46.4%
remaining activity at 0.001288 µM ([1]; 1 h, TG6-129 log([M]) -8.89, EP4-V72A, read-out: % cAMP activity (normalized to WT)): 40.4%
TG6-129 cAMP activity (∆pIC50 from EP4 WT), Mean ([1]; V72A, Mean): -0.480
TG6-129 cAMP activity (∆pIC50 from EP4 WT) ([1]; V72A, single experiments 1st-3rd): -0.475 and -0.451 and -0.514
ΔpIC50 [1, 8]: -0.48 ± 0.02
IC50 [2]: 603 nM
TG6-129 cAMP activity (∆pIC50 from EP2 WT), Mean ([2]; S86A, Mean): -0.670
TG6-129 cAMP activity (∆pIC50 from EP2 WT) ([2]; S86A, single experiments 1st-3rd): -0.744 and -0.540 and -0.726
ΔpIC50 [2, 8]: -0.67 ± 0.07
IC50 [3]: 50.1 nM
TG6-129 cAMP activity (∆pIC50 from EP2 WT), Mean ([3]; S305A, Mean): 0.384
ΔpIC50 [3, 8]: 0.38 ± 0.10
IC50 [4]: 3630 nM
remaining activity at 0.1 µM ([4]; 1 h, TG6-129 log([M]) -7, EP2-W186A, read-out: % cAMP activity (normalized to WT)): 91.6%
remaining activity at 0.0001 µM ([4]; 1 h, TG6-129 log([M]) -10, EP2-W186A, read-out: % cAMP activity (normalized to WT)): 92.4%
remaining activity at 10 pM ([4]; 1 h, TG6-129 log([M]) -11, EP2-W186A, read-out: % cAMP activity (normalized to WT)): 99.9%
remaining activity at 1 pM ([4]; 1 h, TG6-129 log([M]) -12, EP2-W186A, read-out: % cAMP activity (normalized to WT)): 97.8%
TG6-129 cAMP activity (∆pIC50 from EP2 WT), Mean ([4]; W186A, Mean): -1.465
ΔpIC50 [4, 8]: -1.47 ± 0.16
IC50 [5]: 490 nM
remaining activity at 1 µM ([5]; 1 h, TG6-129 log([M]) -6, EP2-M116A, read-out: % cAMP activity (normalized to WT)): 94.8%
TG6-129 cAMP activity (∆pIC50 from EP2 WT), Mean ([5]; M116A, Mean): -0.618
TG6-129 cAMP activity (∆pIC50 from EP2 WT) ([5]; M116A, single experiments 1st-3rd): -0.597 and -0.614 and -0.642
ΔpIC50 [5, 8]: -0.62 ± 0.01
IC50 [6]: 219 nM
TG6-129 cAMP activity (∆pIC50 from EP2 WT), Mean ([6]; T82A, Mean): -0.316
TG6-129 cAMP activity (∆pIC50 from EP2 WT) ([6]; T82A, single experiments 1st-3rd): -0.298 and -0.466 and -0.185
IC50 [7]: 6760 nM
remaining activity at 100 µM ([7]; 1 h, TG6-129 log([M]) -4.00, EP4-V320A, read-out: % cAMP activity (normalized to WT)): 8.24%
remaining activity at 20 µM ([7]; 1 h, TG6-129 log([M]) -4.70, EP4-V320A, read-out: % cAMP activity (normalized to WT)): 16%
remaining activity at […] ([7]; 1 h, TG6-129 log([M]) -5.40, EP4-V320A, read-out: % cAMP activity (normalized to WT)): 41.7%
remaining activity at […] ([7]; 1 h, TG6-129 log([M]) -6.10, EP4-V320A, read-out: % cAMP activity (normalized to WT)): 57.4%
remaining activity at […] ([7]; 1 h, TG6-129 log([M]) -6.80, EP4-V320A, read-out: % cAMP activity (normalized to WT)): 59.5%
remaining activity at 0.0324 µM ([7]; 1 h, TG6-129 log([M]) -7.49, EP4-V320A, read-out: % cAMP activity (normalized to WT)): 49.7%
remaining activity at 0.00646 µM ([7]; 1 h, TG6-129 log([M]) -8.19, EP4-V320A, read-out: % cAMP activity (normalized to WT)): 54.3%
remaining activity at 0.00129 µM ([7]; 1 h, TG6-129 log([M]) -8.89, EP4-V320A, read-out: % cAMP activity (normalized to WT)): 60.2%
TG6-129 cAMP activity (∆pIC50 from EP4 WT), Mean ([7]; V320A, Mean): -0.014
TG6-129 cAMP activity (∆pIC50 from EP4 WT) ([7]; V320A, single experiments 1st-3rd): 0.016 and -0.105 and 0.048
ΔpIC50 [7, 8]: -0.01 ± 0.04
Compound: CCc1nnc(NS(=O)(=O)c2ccc(NC(=S)NC(=O)/C=C/c3ccc(F)cc3)cc2)s1 [TG6-129]
